In the CheMixHub viscosity set:
Several values for one entry are separate records, joined by “and”; a condition that tells them apart may be missing. Equal entries are not always repeated.

Experiment: xn = mol fraction of the nth substance listed

[Cl-].[Cl-].[Cl-].[Cl-].[Sn+4] + O=C(O)C(Cl)(Cl)Cl
323.15 K, 101 kPa
Details	viscosity [mPa·s]
x1 = 0.1911	2.66
x1 = 0.4139	1.448
x1 = 0.667	0.959

[Cl-].[Cl-].[Cl-].[Cl-].[Sn+4] + O=C(O)CCl
323.15 K, 101 kPa
Details	viscosity [mPa·s]
x1 = 0.025	3.305
x1 = 0.0506	3.944
x1 = 0.0951	4.193
x1 = 0.0957	4.1
x1 = 0.1491	4.17
x1 = 0.2041	3.921
x1 = 0.2511	2.927
x1 = 0.3456	2.003
x1 = 0.4928	1.41
x1 = 0.6663	0.948
x1 = 0.7708	0.836

CCCCCC[N+]1(C)CCOCC1.[Br-] + O=S1(=O)CCCC1
100 kPa, x1 = 0.0998
Details	viscosity [mPa·s]
293.15 K	42.16
298.15 K	34.36
303.15 K	28.35
308.15 K	23.7
313.15 K	20.06
318.15 K	17.1
323.15 K	14.72

O=C1CCCN1 + OCCCO
308.15 K, 101 kPa
Details	viscosity [mPa·s]
x1 = 0.1929	22.6
x1 = 0.3918	17.83
x1 = 0.4915	15.95
x1 = 0.5918	14.51
x1 = 0.6929	12.9
x1 = 0.897	10.06

O=C1CCCN1 + OCCO
101.33 kPa
Details	viscosity [mPa·s]
298.15 K, x1 = 0.04482	16.51
298.15 K, x1 = 0.1032	16.1
298.15 K, x1 = 0.2107	15.53
298.15 K, x1 = 0.3059	15.19
298.15 K, x1 = 0.3998	14.98
298.15 K, x1 = 0.4988	14.85
298.15 K, x1 = 0.6042	14.73
298.15 K, x1 = 0.6866	14.62
298.15 K, x1 = 0.7865	14.39
298.15 K, x1 = 0.9015	13.95
298.15 K, x1 = 0.9371	13.76
308.15 K, x1 = 0.05148	11.22
308.15 K, x1 = 0.2079	10.64
308.15 K, x1 = 0.3048	10.4
308.15 K, x1 = 0.3932	10.24
308.15 K, x1 = 0.4992	10.12
308.15 K, x1 = 0.9078	9.505
308.15 K, x1 = 0.952	9.341
318.15 K, x1 = 0.04423	7.91
318.15 K, x1 = 0.1016	7.746
318.15 K, x1 = 0.2104	7.505
318.15 K, x1 = 0.318	7.342
318.15 K, x1 = 0.3931	7.265
318.15 K, x1 = 0.4945	7.195
318.15 K, x1 = 0.592	7.15
318.15 K, x1 = 0.7035	7.089
318.15 K, x1 = 0.7949	7.002
318.15 K, x1 = 0.8888	6.855
318.15 K, x1 = 0.9417	6.74

CCCCCC[N+]1(C)CCOCC1.[Br-] + OCCOCCO
100 kPa, x1 = 0.2003
Details	viscosity [mPa·s]
293.15 K	88.12
298.15 K	66.83
303.15 K	51.75
308.15 K	40.85
313.15 K	32.85
318.15 K	26.75
323.15 K	22.17

CCCCCC[N+]1(C)CCOCC1.[Br-] + OCCOCCOCCO
100 kPa, x1 = 0.2005
Details	viscosity [mPa·s]
293.15 K	111.2
298.15 K	83.7
303.15 K	64.32
308.15 K	50.24
313.15 K	40.12
318.15 K	32.53
323.15 K	26.79

CN(c1ccccc1)c1ccccc1 + Oc1ccccc1
101 kPa
Details	viscosity [mPa·s]
293.25 K, x2 = 0.0915	7.08
293.25 K, x2 = 0.169	7.15
293.25 K, x2 = 0.2877	7.3
293.25 K, x2 = 0.4271	7.64
293.25 K, x2 = 0.5326	7.98
293.25 K, x2 = 0.6464	8.45
293.25 K, x2 = 0.7197	8.85
293.25 K, x2 = 0.7988	9.35
293.25 K, x2 = 0.8785	9.95
293.25 K, x2 = 0.942	10.48
303.15 K, x2 = 0.0926	5.1
303.15 K, x2 = 0.1813	5.13
303.15 K, x2 = 0.328	5.19
303.15 K, x2 = 0.5156	5.42
303.15 K, x2 = 0.6595	5.7
303.15 K, x2 = 0.7615	5.97
303.15 K, x2 = 0.8443	6.26
303.15 K, x2 = 0.9	6.5
303.15 K, x2 = 0.9463	6.73
313.15 K, x2 = 0.0926	3.785
313.15 K, x2 = 0.1813	3.76
313.15 K, x2 = 0.328	3.77
313.15 K, x2 = 0.5156	3.88
313.15 K, x2 = 0.6595	4.02
313.15 K, x2 = 0.7615	4.15
313.15 K, x2 = 0.8443	4.28
313.15 K, x2 = 0.9	4.4
313.15 K, x2 = 0.9463	4.51

CN(c1ccccc1)c1ccccc1 + Oc1ccccc1Cl
viscosity [mPa·s], 101 kPa
Details	x2 = 0.1862	x2 = 0.3326	x2 = 0.47	x2 = 0.5927	x2 = 0.6593	x2 = 0.7583	x2 = 0.8455	x2 = 0.9249
293.15 K	6.47	5.95	5.53	5.2	5.02	4.79	4.59	4.4
303.15 K	4.635	4.305	4.03	3.805	3.685	3.51	3.36	3.215
313.15 K	3.5	3.25	3.04	2.85	2.75	2.6	2.49	2.39

Cc1cc(C)cc(C)c1 + c1ccccc1
viscosity [mPa·s], 101 kPa
Details	x1 = 0.0992	x1 = 0.1997	x1 = 0.3013	x1 = 0.4024	x1 = 0.504	x1 = 0.5997	x1 = 0.7035	x1 = 0.7997	x1 = 0.9018
303 K	0.5455	0.5407	0.5421	0.546	0.5511	0.5579	0.5714	0.5833	0.596
313 K	0.4826	0.4807	0.4822	0.4861	0.4905	0.4999	0.5097	0.5201	0.5336
323 K	0.4308	0.4229	0.4325	0.4374	0.439	0.4507	0.4587	0.4681	0.4791

[Cl-].[Cl-].[Cl-].[Cl-].[Sn+4] + c1ccccc1
viscosity, 101 kPa
Details	293.15 K	313.15 K
x2 = 0.5	–	0.5435 mPa·s
x2 = 0.7	0.6136 mPa·s	0.485 mPa·s and 0.4846 mPa·s

NC(=O)c1ccccc1 + c1ccncc1
298.15 K, 101 kPa
Details	viscosity [mPa·s]
x1 = 0.0343	1.055
x1 = 0.08504	1.331
